Earlier results in US20140100283A1, “Method to Increase Absorption and Bioavailability of Oral Glutathione” (Atlantic Pro Nutrients, Inc. dba XYMOGEN, priority 2012, published 2014).

Settings: in vivo

For `N[C@@H](CCC(=O)N[C@@H](CS)C(=O)NCC(=O)O)C(=O)O` [glutathione, Glutathione], the “increase in circulating glutathione after oral administration” value is given as “does not increase circulating glutathione to a clinically beneficial extent”.
